From patent US6893813B2, “Methods for treatment of HIV and other infections using a T cell or viral activator and anti-retroviral combination therapy” (priority 1997, dated 2005)

How the values were obtained:
[1] = tested on: PBMCs isolated from HIV-infected subjects; experiment: culture of PBMCs from HIV-infected subjects without anti-retroviral drugs: T cell subsets; type: cell-based, human; settings: no anti-retroviral drugs
From the text: (§1) The percent of CD8+ cells in the culture increased with lower concentrations of CD3,8 BSMAB. […] Absent anti-retroviral drugs, this massive activation of HIV will eventually cause a sharp decrease in the CD4+ T cell population.

HIV = HIV replication (p24 in culture supernatant) in PBMC cultures without anti-retroviral drugs; type: cell-based, human; settings: no anti-retroviral drugs
From the text: as §1

phytohemagglutinin [PHA]
T cell subsets activated [1]: both CD4+ and CD8+ T cells were activated | selective outgrowth of CD4+ T cells [1]: No selective outgrowth of the CD4+ T cells occurred | HIV replication (p24 in supernatant) (HIV): induced increased HIV replication
